Assay results published in publication PMC8427694, “The Herbal Compound Thymol Targets Multiple Salmonella Typhimurium Virulence Factors for Lon Protease Degradation” (Frontiers in Pharmacology, 2021).

Legend:
Assay type in all cases: cell-based
[1] = target: T1, GST-SipA497-669 (Salmonella enterica, UniProt E1WAC6); test: circular dichroism of purified protein from thymol-exposed cells; settings: thymol present in E. coli culture during expression; protein 7.3 uM in PBS, 25 °C
T1 construct: gene sipA; residues 497-669 (actin nucleation domain), N-terminal GST (pGEX-6p-1) kept, expressed in E. coli BL21(DE3), glutathione-Sepharose purified

[2] = target: T2, GST-SipA27-270 (Salmonella enterica, UniProt E1WAC6); test: as above; settings: thymol present in E. coli culture during expression; protein 7.9 uM in PBS, 25 °C
T2 construct: gene sipA

[3] = target: T2, GST-SipA27-270; test: click chemistry labelling, in-gel fluorescence; settings: covalent (suggested; survives SDS and 100 °C); labelled compound; compound added to E. coli culture during expression, 20 °C, 16 h; possibly a cellular derivative binds
[4] = target: T1, GST-SipA497-669; test: click chemistry labelling, in-gel fluorescence; settings: covalent (suggested; survives SDS and 100 °C); labelled compound; compound added to E. coli culture during expression, 20 °C, 16 h; possibly a cellular derivative binds

T1 sequence (E1WAC6 497-669 limits assumed): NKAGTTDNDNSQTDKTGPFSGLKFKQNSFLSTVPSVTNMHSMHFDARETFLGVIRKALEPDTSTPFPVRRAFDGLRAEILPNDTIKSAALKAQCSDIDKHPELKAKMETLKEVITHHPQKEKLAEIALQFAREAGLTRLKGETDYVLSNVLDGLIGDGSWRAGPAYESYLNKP
T2 sequence (E1WAC6 27-270): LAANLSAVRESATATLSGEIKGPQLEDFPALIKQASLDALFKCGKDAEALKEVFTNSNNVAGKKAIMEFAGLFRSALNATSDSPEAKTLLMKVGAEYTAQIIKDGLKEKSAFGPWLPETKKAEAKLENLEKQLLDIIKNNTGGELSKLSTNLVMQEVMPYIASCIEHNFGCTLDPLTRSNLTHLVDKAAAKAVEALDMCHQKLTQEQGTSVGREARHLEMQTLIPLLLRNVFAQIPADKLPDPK

SMILES | circular dichroism of purified protein from thymol-exposed cells [1] | circular dichroism of purified protein from thymol-exposed cells [2] | click chemistry labelling, in-gel fluorescence [3] | click chemistry labelling, in-gel fluorescence [4]
Cc1ccc(C(C)C)c(O)c1 [thymol] | proteins purified from cells treated with thymol exhibited significant changes in their CD spectra | proteins purified from cells treated with thymol exhibited significant changes in their CD spectra | – | –
C#CCOc1cc(C)ccc1C(C)C [alkyne-thymol] | – | – | Fluorescence signals were detected only in samples receiving alkyne-thymol | Fluorescence signals were detected only in samples receiving alkyne-thymol
